Measured values: US7018642B2 (The Procter & Gamble Company, priority 2001, dated 2006)

Tests used:
Type in all cases: cell-based
[1] = system: P. fluorescens strain ATCC 13525; experiment: Improved biofilm dispersion screen (already-formed biofilms, crystal violet); details: Pseudomonas fluorescens, ATCC13525, 20 mM NaOH step, positive = dispersion, negative = enhancement of pre-existing biofilm, quadruplicate, read-out: average percentage reduction of biofilm relative to the two control values (dispersion)
Method: (§1) A modification of method disclosed in Reference Example 2, which greatly improves the sensitivity and reproducibility of the dispersion screen is hereby disclosed. […] In the modification described herein, compounds are added in the presence of the fresh liquid growth media, such that the resultant biofilms continue to grow, unless a test compound triggers their dispersion. Overnight cultures are made as above, and 100 μL of the appropriate liquid growth media are dispensed into duplicate 96 well microplates—in this fashion, two identical microplates are set up for each bacterial species to be assayed. Neither compounds nor DMSO are added prior to the inoculation of bacteria, and growth in the duplicate plates for 24 hours is allowed using the conditions specified in Reference Example 1. After growth of biofilm to be tested in the wells, cells present in biofilm attached to one of the duplicate microplates is stained with CV, quantitated as described in Reference Example 1, and the data for the entire plate averaged, resulting in a growth control value, t0. The remaining replicate of each microplate pairs is treated with compounds in DMSO, or DMSO alone for control wells, by first removing the cell suspensions from the wells, then adding fresh 100 μL volumes of the same appropriate liquid growth media, followed by direct addition and mixing of the compound DMSO solutions to give final compound concentrations of 390 μM. Incubation of the compound-containing microplates is then continued for an additional 22–26 hours using the same conditions described in Reference Example 1. Cell suspensions are then removed, 100 μL per well of a 0 mM NaOH (S. epidermidis), 20 mM NaOH (P. fluorescens), or 30 mM NaOH (P. aeruginosa) solution in PBS is added, and incubation at room temperature is allowed for 30 minutes. No addition of NaOH is made to the S. epidermidis suspension since a test assay indicated no amplification by base with S. epidermidis. The microplates are subsequently rinsed three times with 150 μL per well of PBS, followed by final liquid removal, staining with CV and quantitation as described in Reference Example 1. Data for each well that contained compound result in a compound value, R, and data for control wells that contained DMSO only are averaged to generate a second control value, t24. The effect of each compound tested on dispersion of the biofilm compared to the two control values is calculated thus: [formula] […] Data are expressed in terms of the average percentage reduction of biofilm formed in the presence of each compound, relative to the two control values, for quadruplicate samples. Assays are run as described above, using compound concentrations of 390 μM. Positive numbers indicate dispersion (reduction) of pre-existing biofilms by a compound, and negative numbers indicate enhancement (stimulation of growth) of pre-existing biofilms by a compound (percentage coefficients of variation are ≦15%).

[2] = system: S. epidermidis strain ATCC 35984; experiment: as above; details: Staphylococcus epidermidis, ATCC35984, no NaOH, positive = dispersion, negative = enhancement of pre-existing biofilm, quadruplicate, read-out: average percentage reduction of biofilm relative to the two control values (dispersion)
Method: as §1

[3] = system: P. aeruginosa strain PAO1; experiment: as above; details: Pseudomonas aeruginosa, 30 mM NaOH step, positive = dispersion, negative = enhancement of pre-existing biofilm, quadruplicate, read-out: average percentage reduction of biofilm relative to the two control values (dispersion)
Method: as §1

[4] = system: P. fluorescens strain ATCC 13525; experiment: Biofilm prevention screen (96-well microplate, crystal violet); details: Pseudomonas fluorescens, positive = prevention, negative = enhancement of biofilm formation, quadruplicate, read-out: average percentage reduction of biofilm formed relative to DMSO controls; for inhibition at 32 µM: ATCC13525, 32 μM; for inhibition at 160 µM: ATCC13525, 160 μM; for inhibition at 390 µM: ATCC13525, 390 μM
Method: (§2) Overnight cultures of 3 mL are made of P. aeruginosa strain PAO1 (grown in R2A medium (Handbook of Microbiological Media; CRC Press, 1997, second edition, R. M. Atlas, ed.), modified to omit Mg^2+ but to include 0.3–0.5% fructose (pH 7.0) and 3 μM ferrous ammonium sulfate), P. fluorescens strain ATCC 13525 (grown in R2A modified to omit Mg^2+ but to include 0.3–0.5% sodium pyruvate (pH 7.0)), S. epidermidis strain ATCC 35984 (grown in a ¼ dilution of TSB (Handbook of Microbiological Media; CRC Press, 1997, second edition, R. M. Atlas, ed.) supplemented with 1% fructose (pH 7.0) and 3 μM ferrous ammonium sulfate). To each type of growth medium, HEPES (pH 7.3) is optionally added to a final concentration of 10 mM.
(§3) To PS, PVC, or PP (preferably PP or PVC) round-bottom, 96-well microplates containing 100 μl per well of the respective growth medium as described above, compounds to be tested (dissolved in DMSO) are added and mixed, to give a final concentration of 250–500 μM. These microplates then also are used to make successive dilutions of the compounds in the same respective growth medium to yield microplates containing final concentrations of, for example, 160 μM and 32 μM of the same set of compounds. Control wells are included in the dilution series that contain only DMSO. From the 3 ml overnight cultures, each of the three dilution plate sets is inoculated with 5 μl per well of a 1:1 dilution in the same liquid growth media of the appropriate culture. The covered plate is then incubated with shaking, at 30° C. (for P. aeruginosa or P. fluorescens) or 37° C. (for S. epidermidis), at 200 rpm, for 16–26 hours, in a humidity controlled environment.
(§4) Cells present in biofilm attached to the microplate surface are stained with CV either after removal of the liquid from each well, followed by rinsing three times (aspiration and addition) with 150 μl per well phosphate buffered saline solution (PBS) and final addition of 100 μl per well of PBS, or by direct addition of stain to bacterial cultures without rinsing. To 100 μl per well of PBS or of bacterial culture, 25 μl/well of 1% CV solution (in ˜10% ethanol) is added. After incubation at room temperature for 45 minutes, the dye solution is removed from the plates. Residual dye is immediately removed by gentle rinsing with a stream of deionized water by filling and inverting the plates 4–5 times, or by using an automated pipettor. Rinsed plates are air-dried at room temperature for 0.5–2 hours. Bound dye is extracted by the addition of 150 μL per well of 95% ethanol, followed by vigorous mixing for 10–15 seconds and incubation for 45 minutes at room temperature without shaking. Subsequently, either undiluted or diluted (in ethanol) samples of extracted CV are transferred to flat bottom, polystyrene microtiter plates and absorbances at 586 nm were measured in a microplate reader. Readings from wells containing compounds are compared to the average of data from control wells that contain only DMSO. Replicate samples are measured, and results are reported as averages of the replicate well data points.
(§5) Data are expressed in terms of the average percentage reduction of biofilm formed in the presence of each compound, relative to the DMSO controls, for quadruplicate samples. Assays are run using the three compound concentrations indicated. Positive numbers indicate prevention of biofilm formation by a compound, and negative numbers indicate enhancement of biofilm formation by a compound (percentage coefficients of variation are ≦10%).

[5] = system: S. epidermidis strain ATCC 35984; experiment: as above; details: Staphylococcus epidermidis, positive = prevention, negative = enhancement of biofilm formation, quadruplicate, read-out: average percentage reduction of biofilm formed relative to DMSO controls; for inhibition at 32 µM: ATCC35984, 32 μM; for inhibition at 160 µM: ATCC35984, 160 μM; for inhibition at 390 µM: ATCC35984, 390 μM
Method: as §2, §3, §4, §5

[6] = system: P. aeruginosa strain PAO1; experiment: as above; details: Pseudomonas aeruginosa, positive = prevention, negative = enhancement of biofilm formation, quadruplicate, read-out: average percentage reduction of biofilm formed relative to DMSO controls
Method: as §2, §3, §4, §5

In the case of CCCCCCCCNC(=O)[C@@H]1CCCCN1C(C)=O [Compound 21], the inhibition at 390 µM [1] was -16%, the inhibition at 390 µM [2] was -8% and the inhibition at 390 µM [3] was -39%. For the same compound, the inhibition at 32 µM [4] was 2%, the inhibition at 160 µM [4] was 4% and the inhibition at 390 µM [4] was 20%. For the same compound, the inhibition at 32 µM [5] was -15%, the inhibition at 160 µM [5] was -23% and the inhibition at 390 µM [5] was -24%. It also gave an inhibition at 32 µM [6] of -6%, an inhibition at 160 µM [6] of -12% and an inhibition at 390 µM [6] of -11%.

With CCCCCCCCNC(=O)[C@H]1CCCCN1C(=O)OC(C)(C)C [Compound 22, (R)-(+)-1-(tert-Butoxycarbonyl)-2-piperidinecarboxylic acid n-octyl amide] the inhibition at 390 µM [1] was 0%, the inhibition at 390 µM [2] was 0% and the inhibition at 390 µM [3] was -54%. The inhibition at 32 µM [4] was 3%, the inhibition at 160 µM [4] was 27% and the inhibition at 390 µM [4] was 25%. It also gave an inhibition at 32 µM [5] of -6%, an inhibition at 160 µM [5] of -17% and an inhibition at 390 µM [5] of 3%. The inhibition at 32 µM [6] was 0%, the inhibition at 160 µM [6] was -8% and the inhibition at 390 µM [6] was -6%.

CCCCCCCCNC(=O)[C@H]1CCCCN1 [Compound 23, (R)-(+)-2-piperidinecarboxylic acid n-octyl amide] showed an inhibition at 390 µM [1] of 26%, an inhibition at 390 µM [2] of 0% and an inhibition at 390 µM [3] of 0%. For the same compound, the inhibition at 32 µM [4] was -23%, the inhibition at 160 µM [4] was -13% and the inhibition at 390 µM [4] was 21%. The inhibition at 32 µM [5] was -1%, the inhibition at 160 µM [5] was 15% and the inhibition at 390 µM [5] was -36%. The inhibition at 32 µM [6] was -5%, the inhibition at 160 µM [6] was -31% and the inhibition at 390 µM [6] was -3%.

For CCCCCCCCNC(=O)[C@H]1CCCCN1C(C)=O [Compound 24], the inhibition at 390 µM [1] was 0%, the inhibition at 390 µM [2] was -8% and the inhibition at 390 µM [3] was -17%. The inhibition at 32 µM [4] was -1%, the inhibition at 160 µM [4] was -6% and the inhibition at 390 µM [4] was -2%. It also gave an inhibition at 32 µM [5] of -8%, an inhibition at 160 µM [5] of -20% and an inhibition at 390 µM [5] of -53%. For the same compound, the inhibition at 32 µM [6] was -12%, the inhibition at 160 µM [6] was -22% and the inhibition at 390 µM [6] was -11%.

Work on CCCCCCCCNC(=O)[C@H]1CCCCN1C(=O)CCCCCCC [Compound 28, 1-Octanoyl-(R)-(+)-2-piperidinecarboxylic acid n-octyl amide] yielded an inhibition at 390 µM [1] of 10%, an inhibition at 390 µM [2] of -8% and an inhibition at 390 µM [3] of -25%. It also gave an inhibition at 32 µM [4] of 21%, an inhibition at 160 µM [4] of 38% and an inhibition at 390 µM [4] of 26%. It also gave an inhibition at 32 µM [5] of -5%, an inhibition at 160 µM [5] of -44% and an inhibition at 390 µM [5] of -51%. For the same compound, the inhibition at 32 µM [6] was 0%, the inhibition at 160 µM [6] was -3% and the inhibition at 390 µM [6] was -9%.

CCCCCCNC(=O)[C@@H]1CCCN1 [Compound 30] gave an inhibition at 390 µM [1] of 20%, an inhibition at 390 µM [2] of -11% and an inhibition at 390 µM [3] of 1%. The inhibition at 32 µM [4] was 11%, the inhibition at 160 µM [4] was 11% and the inhibition at 390 µM [4] was 19%. The inhibition at 32 µM [5] was -12%, the inhibition at 160 µM [5] was -7% and the inhibition at 390 µM [5] was -6%. The inhibition at 32 µM [6] was 2%, the inhibition at 160 µM [6] was 9% and the inhibition at 390 µM [6] was 18%.

In the case of CCCCCCCCNC(=O)[C@@H]1CCCN1 [Compound 31], the inhibition at 390 µM [1] was 32%, the inhibition at 390 µM [2] was -11% and the inhibition at 390 µM [3] was 21%. It also gave an inhibition at 32 µM [4] of 3%, an inhibition at 160 µM [4] of 5% and an inhibition at 390 µM [4] of 52%. It also gave an inhibition at 32 µM [5] of -7%, an inhibition at 160 µM [5] of -1% and an inhibition at 390 µM [5] of -27%. The inhibition at 32 µM [6] was -37%, the inhibition at 160 µM [6] was -125% and the inhibition at 390 µM [6] was -44%.

With CCCCNC(=O)[C@H]1CCCN1C(=O)OC(C)(C)C [Compound 152] the inhibition at 390 µM [1] was 1%, the inhibition at 390 µM [2] was -4% and the inhibition at 390 µM [3] was -9%. The inhibition at 32 µM [4] was 5%, the inhibition at 160 µM [4] was 5% and the inhibition at 390 µM [4] was -7%. For the same compound, the inhibition at 32 µM [5] was -5%, the inhibition at 160 µM [5] was -13% and the inhibition at 390 µM [5] was -8%. For the same compound, the inhibition at 32 µM [6] was -4%, the inhibition at 160 µM [6] was -9% and the inhibition at 390 µM [6] was 2%.

Compound CCCCCCNC(=O)[C@H]1CCCN1C(=O)OC(C)(C)C [Compound 153] has an inhibition at 390 µM [1] of 1%, an inhibition at 390 µM [2] of -10% and an inhibition at 390 µM [3] of -7%. For the same compound, the inhibition at 32 µM [4] was 7%, the inhibition at 160 µM [4] was 4% and the inhibition at 390 µM [4] was -3%. It also gave an inhibition at 32 µM [5] of -8%, an inhibition at 160 µM [5] of -7% and an inhibition at 390 µM [5] of -17%. It also gave an inhibition at 32 µM [6] of -9%, an inhibition at 160 µM [6] of -6% and an inhibition at 390 µM [6] of -4%.
